This is an account of results in US5594006A, “Carbostyril derivatives as matrix metalloproteinases inhibitors” (Otsuka Pharmaceutical Co., Ltd., priority 1993, dated 1997).

For experiment [1], the target named is T1, Interstitial collagenase (Homo sapiens, UniProt P03956).
T1 construct: endogenous in cells; host or cells: Detroit 551 (human fibroblasts), culture supernatant, purified
T1 sequence (P03956 100-469): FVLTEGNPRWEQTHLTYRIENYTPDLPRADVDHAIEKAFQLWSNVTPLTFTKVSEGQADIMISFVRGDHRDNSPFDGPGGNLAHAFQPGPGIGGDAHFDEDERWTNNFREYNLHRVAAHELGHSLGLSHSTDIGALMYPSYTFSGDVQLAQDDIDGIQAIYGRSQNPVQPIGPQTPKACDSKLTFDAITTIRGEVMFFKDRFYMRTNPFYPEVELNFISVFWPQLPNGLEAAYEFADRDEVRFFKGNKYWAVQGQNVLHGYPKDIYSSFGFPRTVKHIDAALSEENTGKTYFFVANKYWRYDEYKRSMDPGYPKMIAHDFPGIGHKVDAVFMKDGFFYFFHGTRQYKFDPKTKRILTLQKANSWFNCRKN
Kind of experiment: Interstitial collagenase inhibiting activity (fluorescence labeled collagen). Particulars: from human fibroblast cell (Detroit 551); 2 hours at 35° C., pH 7.5. The experiment is classed as biochemical. Here is the method: (2) Measuring Method of Interstitial Collagenase Inhibiting Activity
Inhibiting of interstitial collagenase refined from the culture supernatant of human fibroblast cell (Detroit 551 cell) was measured by using fluorescence labeled collagen, according to the method proposed by Nagai et al. [Inflammation, 4 (2), 123 (1984)].
The enzyme was activated by incubating for 3 hours at 37° C. in 1 mM mercury (II) p-aminophenylacetate. The test compound was used by dissolving in dimethyl sulfoxide. The enzyme reaction was started by adding the activated enzyme in 50 mM TRIS-hydrochloric acid (pH 7.5), 0.2M NaCl, 5 mM CaCl2, 0.02% (w/v) NaN3, 2.5 mM acetic acid, and 0.1% (v/v) dimethyl sulfoxide solution containing the test compound and 0.025% (w/v) of fluorescence labeled collagen as substrate. The reaction was conducted for 2 hours at 35° C., and stopped by adding ice-chilled 80 mM O-phenanthroline, 50% (v/v) ethanol solution by 1/20 amount. To this, moreover, an equivalent volume of 50 mM TRIS-hydrochloric acid (pH 7.5), 0.2M NaCl, 5 mM CaCl2, 0.02% (w/v) NaN3 solution was added to incubate further for 1 hour at 35° C. to degenerate specifically only the digestion product, and the digestion product was extracted by adding 0.17M TRIS-hydrochloric acid (pH 9.5), 0.67M NaCl solution including an equivalent amount of 70% (v/v) ethanol, and afterwards, by centrifugal separation for 15 minutes at 3000 rpm, 4° C., the undigested substrate was precipitated. The fluorescence intensity of the obtained supernatant was measured at 520 nm (Em)/495 nm (Ex), and the decomposition volume was quantitatively determined.
(§1) The enzyme inhibiting activity was expressed by the concentration (IC50) of the test compound wherein the enzyme activity of known amount was inhibited till 50%.

The target of experiment [2] is T2, Stromelysin (Mus musculus, UniProt P28862).
T2 construct: endogenous in cells; host or cells: Colon 26 (mouse colon cancer cells), culture supernatant, purified
T2 sequence (P28862 100-477): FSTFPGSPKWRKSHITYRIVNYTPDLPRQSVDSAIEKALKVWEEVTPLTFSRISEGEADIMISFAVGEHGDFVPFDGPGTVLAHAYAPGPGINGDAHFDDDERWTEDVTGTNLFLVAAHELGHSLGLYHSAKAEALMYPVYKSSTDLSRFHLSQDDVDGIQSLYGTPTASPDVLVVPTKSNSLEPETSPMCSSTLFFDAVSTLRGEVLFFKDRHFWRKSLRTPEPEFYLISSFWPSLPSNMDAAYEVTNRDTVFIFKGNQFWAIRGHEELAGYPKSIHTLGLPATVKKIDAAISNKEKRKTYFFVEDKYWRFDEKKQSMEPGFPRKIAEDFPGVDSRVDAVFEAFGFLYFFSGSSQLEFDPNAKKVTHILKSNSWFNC
Kind of experiment: Stromelysin inhibiting activity (fluorescence labeled casein). Format: biochemical. Particulars: from mouse colon cancer cell (Colon 26); 3 hours at 37° C., pH 7.5. Here is the method:
(1) Measuring Method of Stromelysin Inhibiting Activity
Inhibiting of Stromelysin refined from the culture supernatant of mouse colon cancer cell (Colon 26 cell) was measured by using fluorescence labeled casein, according to the method proposed by Miyazaki et al. (J. Biochem., 108, 537-543, 1990), and S. S. Twining [Fed. Proc., 42, 1951 (1984)].
The enzyme was activated by incubating for 2 hours at 37° C. in 1 mM mercury (II) p-aminophenylacetate. The test compound was used by dissolving in dimethyl sulfoxide. The enzyme reaction was started by adding the activated enzyme in a solution of 50 mM TRIS-hydrochloric acid (pH 7.5), 10 mM CaCl2, and 0.1% (v/v) dimethyl sulfoxide containing the test compound and 0.25% (w/v) of fluorescence labeled casein as substrate. The reaction was conducted for 3 hours at 37° C., and stopped by adding an equivalent amount of 5% (w/v) trichloroacetic acid solution. Afterwards, by centrifugal separation for 15 minutes at 3000 rpm, 4° C., the undigested substrate was precipitated, and to 1 part by volume of the obtained supernatant, 4 parts by volume of 0.3M phosphate buffer (pH 8.5) was added, and the fluorescence intensity was measured at 520 nm (Em)/495 nm (Ex), and the decomposition volume was quantitatively determined.
as §1

With `COCCN1C(=O)C(NC(=O)[C@@H](CC(=O)NO)CC(C)C)Cc2cc3c(cc21)OCO3` (stereo partly drawn) [Test compound 26, 3-[4-(N-hydroxyamino)-2R-isobutylsuccinyl]amino-1-methoxyethyl-6,7-methylendioxy-3,4-dihydrocarbostyril], in experiment [1], the IC50 (in general, the point on the concentration scale where inhibition reaches its midpoint) came out at 1000 nM.
Still for that read-out and setting: the result for `CC(C)C[C@@H](C(=O)N[C@H]1Cc2ccccc2N(CC(=O)O)C1=O)[C@H](C)C(=O)NO` [Test compound 16, 1-carboxymethyl-3S-[4-(N-hydroxyamino)-2R-isobutyl-3S-methylsuccinyl]amino-3,4-dihydrocarbostyril] reads 69 nM.
`CCOC(=O)CN1C(=O)[C@@H](NC(=O)[C@@H](CC(=O)NO)CC(C)C)Cc2ccccc21` [Test compound 8, 1-ethoxycarbonylmethyl-3S-[4-(N-hydroxyamino)-2R-isobutylsuccinyl]amino-3,4-dihydrocarbostyril]: the half-maximal inhibitory concentration (IC50) worked out at 160 nM in experiment [1] and 380 nM in experiment [2].
Consider `CCN1C(=O)[C@@H](NC(=O)[C@@H](CC(=O)NO)CC(C)C)Cc2ccccc21` [Test compound 12, 1-ethyl-3S-[4-(N-hydroxyamino)-2R-isobutylsuccinyl]amino-3,4-dihydrocarbostyril], for which the concentration for half-maximal inhibition (IC50) in experiment [1] stood at 290 nM; in experiment [2], 700 nM.
In the case of `C#CCN1C(=O)[C@@H](NC(=O)[C@H](CC(C)C)[C@H](C)C(=O)NO)Cc2ccccc21` [Test compound 15, 3S-[4-(N-hydroxyamino)-2R-isobutyl-3S-methylsuccinyl]amino-1-(2-propynyl)-3,4-dihydrocarbostyril], in experiment [1], the half-maximal inhibitory concentration (IC50) stood at 20 nM.
The same measure, in the same setting: the result for `CCON1C(=O)[C@@H](NC(=O)[C@@H](CC(=O)NO)CC(C)C)Cc2ccccc21` [Test compound 17, 1-ethoxy-3S-[4-(N-hydroxyamino)-2R-isobutylsuccinyl]amino-3,4-dihydrocarbostyril] reads 41 nM.
Turning to `COCCN1C(=O)[C@H](NC(=O)[C@@H](CC(=O)NO)CC(C)C)Cc2cc3c(cc21)OCO3` [Test compound 25, 3R-[4-(N-hydroxyamino)-2R-isobutylsuccinyl]amino-1-methoxyethyl-6,7-methylenedioxy-3,4-dihydrocarbostyril], in experiment [1], the midpoint of inhibition, the IC50, lay at 4100 nM.
Still for that read-out and setting: the same measure for `COCCN1C(=O)[C@@H](NC(=O)[C@@H](CC(=O)NO)CC(C)C)Cc2cc3c(cc21)OCO3` [Test compound 24, 3S-[4-(N-hydroxyamino)-2R-isobutylsuccinyl]amino-1-methoxyethyl-6,7-methylenedioxy-3,4-dihydrocarbostyril]: 740 nM.
Regarding `C=CCN1C(=O)[C@@H](NC(=O)[C@H](CC(C)C)[C@H](C)C(=O)NO)Cc2ccccc21` [Test compound 13, 1-allyl-3S-[4-(N-hydroxyamino)-2R-isobutyl-3S-methylsuccinyl]amino-3,4-dihydrocarbostyril], the IC50 in experiment [1] stood at 10 nM; in experiment [2], 28 nM.
Compound `CON1C(=O)[C@@H](NC(=O)[C@H](CC(C)C)C(Cc2ccc3c(c2)OCO3)C(=O)NO)Cc2ccccc21` (stereo partly drawn) [Test compound 23, 3S-[4-(N-hydroxyamino)-2R-isobutyl-3-(3,4-methylenedioxybenzyl)succinyl]amino-1-methoxy-3,4-dihydrocarbostyril] gave an IC50 in experiment [1] of 0.064 nM.
On to `CC(C)C[C@H](CC(=O)NO)C(=O)N[C@H]1Cc2ccccc2N(CC(N)=O)C1=O` [Test compound 10, 1-aminocarbonylmethyl-3S-[4-(N-hydroxyamino)-2R-isobutylsuccinyl]amino-3,4-dihydrocarbostyril], for which the half-inhibitory concentration (IC50) amounted to 31 nM in experiment [1] and 200 nM in experiment [2].
For the compound `CCCCCCC[C@H](CC(=O)NO)C(=O)N[C@H]1Cc2ccccc2N(OC)C1=O` [Test compound 20, 3S-[4-(N-hydroxyamino)-2R-heptylsuccinyl]amino-1-methoxy-3,4-dihydrocarbostyril], in experiment [1], 220 nM corresponded to half-maximal inhibition (IC50). This counts as sub-micromolar.
For the compound `COCN1C(=O)[C@@H](NC(=O)[C@@H](CC(=O)NO)CC(C)C)Cc2ccccc21` [Test compound 14, 3S-[4-(N-hydroxyamino)-2R-isobutylsuccinyl]amino-1-methoxymethyl-3,4-dihydrocarbostyril], the IC50 in experiment [1] turned out to be 22 nM; in experiment [2], 37 nM.
Take `COCCN1C(=O)[C@@H](NC(=O)[C@@H](CC(=O)NO)CC(C)C)Cc2ccccc21` [Test compound 21, 3S-[4-(N-hydroxyamino)-2R-isobutylsuccinyl]amino-1-methoxyethyl-3,4-dihydrocarbostyril]: the IC50 in experiment [1] came out at 110 nM. That is a sub-micromolar value.
Turning to `CON1C(=O)[C@@H](NC(=O)[C@H](CC(C)C)[C@H](C)C(=O)NO)Cc2ccccc21` [Test compound 9, 3S-[4-(N-hydroxyamino)-2R-isobutyl-3S-methylsuccinyl]amino-1-methoxy-3,4-dihydrocarbostyril], the IC50 in experiment [1] is 22 nM; in experiment [2], 36 nM.
Regarding `CCN1C(=O)[C@@H](NC(=O)[C@@H](CC(=O)NO)CC(C)C)Cc2cc3c(cc21)OCO3` [Test compound 28, 1-ethyl-3S-[4-(N-hydroxyamino)-2R-isobutylsuccinyl]amino-6,7-methylenedioxy-3,4-dihydrocarbostyril], in experiment [1], inhibition was half-maximal at 87 nM (IC50).
On the same count and under the same terms, the result for `CCCCC[C@H](CC(=O)NO)C(=O)N[C@H]1Cc2ccccc2N(OC)C1=O` [Test compound 30, 3S-[4-(N-hydroxyamino)-2R-pentylsuccinyl]amino-1-methoxy-3,4-dihydrocarbostyril] reads 11 nM; that for `COCON1C(=O)[C@@H](NC(=O)[C@@H](CC(=O)NO)CC(C)C)Cc2ccccc21` [Test compound 31, 3S-[4-(N-hydroxyamino)-2R-isobutylsuccinyl]amino-1-methoxymethoxy-3,4-dihydrocarbostyril], 370 nM; that for `COCCOCN1C(=O)[C@@H](NC(=O)[C@@H](CC(=O)NO)CC(C)C)Cc2ccccc21` [Test compound 18, 3S-[4-(N-hydroxyamino)-2R-isobutylsuccinyl]amino-1-methoxyethoxymethyl-3,4-dihydrocarbostyril], 88 nM.
On to `COC(=O)c1ccc(CN2C(=O)[C@@H](NC(=O)[C@@H](CC(=O)NO)CC(C)C)Cc3ccccc32)cc1` [Test compound 11, 3S-[4-(N-hydroxyamino)-2R-isobutylsuccinyl]amino-1-(4-methoxycarbonylbenzyl)-3,4-dihydrocarbostyril], for which the IC50 in experiment [1] is 750 nM; in experiment [2] it was 290 nM.
In turn, `CCOCC[C@H](CC(=O)NO)C(=O)N[C@H]1Cc2ccccc2N(OC)C1=O` [Test compound 22, 3S-[4-(N-hydroxyamino)-2R-ethoxyethylsuccinyl]amino-1-methoxy-3,4-dihydrocarbostyril] displayed an IC50 in experiment [1] of 3700 nM. This lies in the single-digit micromolar range.
